Columns and labels:
[1] = Solubility of Compound A in solvents and solvent mixtures; assay type: physicochemical
Description: Due to this low solubility, it is difficult to perform crystallization by standard cooling methods and to control crystal growth. […] This improvement in solubility contributes to an improvement in the purity profile of the final drug substance.
As discussed above, the crystallization process makes use of anti-solvent cooling system. In step d), water is added to the suspension or the cooled suspension mixture to provide a treated mixture. Water, which in general acts as an anti-solvent (solubility <0.01% over a wide temperature range), also unexpectedly acts as a solvent for Compound A when part of the water/methanol/tetrahydrofuran solvent system.

[2] = system: BRAFV600 or NRAS-mutant melanoma; details: patients with either BRAFV600 or NRAS-mutant melanoma; cited from earlier work
[3] = system: unresectable, locally advanced or metastatic biliary cancer; details: 28 patients with ≤1 prior systemic therapy; oral 60 mg twice daily; after at least 6 weeks of treatment; cited from earlier work

solubility in most standard solvents ([1]; room temperature): less than 1%
increase of solubility on addition of water to solvent mixture ([1]; tetrahydrofuran and methanol with water, compared to methanol and tetrahydrofuran without water): approximately 50%
solubility in water (anti-solvent) ([1]; water, broad/wide temperature range): < 0.01%
SMILES: Cn1cnc2c(F)c(Nc3ccc(Br)cc3F)c(C(=O)NOCCO)cc21 [Compound A, 6-(4-Bromo-2-fluorophenylamino)-7-fluoro-3-methyl-3H-benzoimidazole-5-carboxylic acid (2-hydroxyethyoxy)-amide]
solvent mixture at which maximum solubility is reached ([1]; 65° C., solubility decreases with further addition of water): water (24%), methanol (38%), and tetrahydrofuran (38%)
effectiveness in treatment of patients [2]: effective
complete regression (number of patients) [3]: 1
partial regression (number of patients) [3]: 1
stable disease diagnoses (number of patients) [3]: 11
